Assay results as given in patent US20080004271A1, “Inhibitors of TNFalpha, PDE4 and B-RAF, compositions thereof and methods of use therewith” (priority 2006, published 2008).

Columns and labels:
pMEK1/2 in A375 cells = test: A375 pMEK1/2 Meso Scale Assay; type: cell-based; details: Homo sapiens, A-375, 2 h; A375 pMEK1/2, about two hours incubation
Description: On the afternoon of Day 1, cells are plated in a 96-well flat bottom cell culture plate at about 50,000 cells/well in a volume of 100 μl. On the morning of Day 2, serial dilutions of test compound(s) are added to the plate. The plate is incubated for about two hours at 37° C., […]. The plate is blocked about five minutes before the compound incubation step is completed by adding 150 μl/well of MSD (Meso Scale Discovery) blocking solution-A (prepared with 20 ml 1× Tris wash buffer (25 ml of 10× Tris buffer+225 ml deionized water) and 600 mg MSD blocker A) and incubating with vigorous shaking at room temperature for one hour. The plate is washed 4× with 1× Tris wash buffer.
Cells are harvested and lysates prepared by removing medium, washing 1× with ice-cold PBS (calcium and magnesium free), adding 50 μl/well Complete Tris buffer and incubating with shaking at 4° C. for one hour. Lysate samples (25 μl) are added to an MSD Multi-Spot plate and incubated with vigorous shaking at room temperature for two hours. The plate is washed 1× with Tris wash buffer.
25 μl/well of […] detection antibody (Anti-pMEK1/2 antibody; SULFO-TAG labeled, light sensitive) in 3 ml of cold antibody dilution buffer (1 ml blocking solution-A, 1.82 ml 1× Tris wash buffer, 150 μl 2% MSD blocker D-M and 30 μl 10% MSD blocker D-R) is added and the plate is incubated with vigorous shaking at room temperature in the dark for one hour. The plate is washed 1× with Tris wash buffer.
150 μl/well of 1× MSD Read buffer T (with surfactant) is added to the plate and the plate is read using a MSD Sector instrument.

A375 cells = test: Alamar Blue Viability Assay; type: cell-based; details: Homo sapiens, A-375, 72 h, 3 days
Description: A375 cells (ATCC # CRL-1619; Passage 4˜15; doubling time is roughly 18 hours) are used. Culture medium is DMEM (high glucose, with L-glutamine)+10% FBS+Pen/Strep. Cells are passed every three days at 1:20.
200 μl of medium only is added into all wells along the edges of a 96-well flat bottom plate and 180 μl of cell suspension (containing 1,000 cells) per well is added into the plate with a Low Evaporation Lid (Costar Cat # 3595). The cells are cultured overnight. Compounds and controls are diluted according to standard compound dilution protocol described below. From 30 mM stock solution, 10 mM, 3 mM, 1 mM, and 0.3 mM solutions in 100% DMSO are prepared using the following serial dilution protocol:
The 30, 10, 3, 1 and 0.3 mM solutions are diluted 1:50 (DMSO:medium) by adding 4 μl of each to 196 μl of culture medium. This yields 600 μM, 200 μM, 60 μM, 20 μM, and 6 μM secondary stock solutions. 4 μl of DMSO are added to 196 μl medium for the DMSO control as well. 20 μl of compound dilutions, including the DMSO control locations (Row G, Columns 2-10 are DMSO control wells), are added in triplicate to the cells in the 96-well plate using a repeat pipettor (see plate layout below). This yields final concentrations of 60 μM, 20 μM, 6 μM, 2 μM, and 0.6 μM containing 0.2% DMSO in each well. The plate is gently tapped to evenly distribute compound within the well. The plate is incubated at 5% CO2 at 37° C. for 3 days.
20 μl of Alamar Blue (Biosource #DAL-1100) is added to each well. The plate is incubated in 5% CO2 incubator for 4 hours. Fluorescence is measured with excitation wavelength at 530 nm and emission wavelength at 590 nm using a Victor 2 multilabel plate reader (Perkin Elmer). Data is saved with plate format as a Text file and entered into ActivityBase (Cell-based SAR; Prolif-Alamar; MTT 5 plates unfixed fit) to calculate the percent of DMSO values for each compound set of triplicate wells and IC50 curves are plotted.

V600E mutant B-RAF = molecular target: T1, V600E mutant B-RAF (Homo sapiens, UniProt P15056, V600E); test: V600E Mutant B-RAF 33P Assay; type: biochemical
T1 construct: purchased Upstate
T1 sequence (P15056 whole entry V600E): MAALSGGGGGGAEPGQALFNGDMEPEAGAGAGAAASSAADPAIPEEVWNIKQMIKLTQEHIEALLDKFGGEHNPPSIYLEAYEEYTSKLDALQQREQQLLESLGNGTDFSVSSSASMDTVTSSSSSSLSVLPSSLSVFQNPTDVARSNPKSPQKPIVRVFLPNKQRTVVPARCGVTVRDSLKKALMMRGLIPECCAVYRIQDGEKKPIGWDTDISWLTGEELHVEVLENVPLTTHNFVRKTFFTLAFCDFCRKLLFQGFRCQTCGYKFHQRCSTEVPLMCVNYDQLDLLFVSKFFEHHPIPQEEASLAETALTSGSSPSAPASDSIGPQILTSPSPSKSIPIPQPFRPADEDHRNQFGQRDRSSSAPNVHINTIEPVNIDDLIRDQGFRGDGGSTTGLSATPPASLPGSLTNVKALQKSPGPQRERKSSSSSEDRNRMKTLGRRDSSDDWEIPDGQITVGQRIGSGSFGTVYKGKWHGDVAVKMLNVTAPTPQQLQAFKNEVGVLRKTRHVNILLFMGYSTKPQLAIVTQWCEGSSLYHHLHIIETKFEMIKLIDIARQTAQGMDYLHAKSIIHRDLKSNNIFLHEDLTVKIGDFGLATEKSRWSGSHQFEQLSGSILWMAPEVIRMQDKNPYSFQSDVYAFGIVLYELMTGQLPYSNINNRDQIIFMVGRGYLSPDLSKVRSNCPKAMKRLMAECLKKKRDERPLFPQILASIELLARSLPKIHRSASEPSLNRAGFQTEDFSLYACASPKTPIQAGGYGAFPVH
Description: Substrate (HIS-MEK1 K97M) is prepared by Celgene Corp. as described above.
Test compound is diluted in 100% DMSO (600 μM). […] Substrate mixture is prepared as 7.5 μM HIS-MEK1 K97M in assay buffer. ATP mixture is prepared as 300 μM ATP, 75 mM MgCl2, 0.05 μCi/μl ^33P ATP in assay buffer.
In a 96 well assay plate (Falcon Polylpropylene well U-bottom), the following are added to each well: 2.5 μl of test compound solution (serial dilutions), 20 μl of substrate mixture and 17.5 μl of enzyme mixture. The plate is incubated for at least 15 minutes. 10 μl of ATP mixture is added and the plate is incubated at room temperature for about 60 minutes. 80 μl of 12.5% TCA is added to each well, and the plate is incubated for at least 20 minutes. The contents of the plate is transferred to a glass fiber filter plate (Millipore) using a Packard Harvester (washing 10× with 1×PBS). 50 μl of Scintillation-20 fluid is added to each well. The plate is read using a Packard TopCount.

Row | Compound | IC50 (pMEK1/2 in A375 cells) [µM] | IC50 (A375 cells) [µM] | IC50 (V600E mutant B-RAF) [µM]
1 | NC(=O)c1sc2nc(NC3CC3)nc(-c3ccc(Cl)cc3)c2c1N [Example 5] | 0.1 to 10 | 10 to 20 | 0.1 to 10
2 | NC(=O)c1sc2nc(NC3CC3)nc(-c3ccc4c(c3)OCC4)c2c1N [Example 162] | 0.1 to 10 | 10 to 20 | 0.1 to 10
3 | C[C@H](CO)Cc1nc(-c2ccc(Cl)c(Cl)c2)c2c(N)c(C(N)=O)sc2n1 [Example 163] | 10 to 20 | 30 to 60 | 
4 | C[C@@H](CO)Cc1nc(-c2ccc(Cl)c(Cl)c2)c2c(N)c(C(N)=O)sc2n1 [Example 164] | 10 to 20 | 20 to 30 | 
5 | COc1cncc(-c2nc(NC3CC3)nc3sc(C(N)=O)c(N)c23)c1 [Example 165] | 0.1 to 10 | 0.1 to 10 | 
6 | NC(=O)c1sc2nc(NC3CC3)nc(-c3ccc(Cl)nc3)c2c1N [Example 169] | 0.1 to 10 | 20 to 30 | 0.1 to 10
7 | NC(=O)c1sc2nc(NC3CC3)nc(-c3cncc(Cl)c3)c2c1N [Example 171] | 0.1 to 10 | 20 to 30 | 0.1 to 10
8 | CCOc1cncc(-c2nc(NC(C)(C)CO)nc3sc(C(N)=O)c(N)c23)c1 [Example 172] | > 60 | > 60 | 30 to 60
9 | COc1cncc(-c2nc(NC(C)(C)CO)nc3sc(C(N)=O)c(N)c23)c1 [Example 173] | 0.1 to 10 | 0.1 to 10 | 
10 | CC[C@H](CO)Nc1nc(-c2cncc(OC)c2)c2c(N)c(C(N)=O)sc2n1 [Example 174] | 0.1 to 10 | 0.1 to 10 | 0.1 to 10
11 | COc1cncc(-c2nc(N[C@H](C)CO)nc3sc(C(N)=O)c(N)c23)c1 [Example 176] | 0.1 to 10 | 0.1 to 10 | 
12 | CC(C)(CO)Nc1nc(-c2cc(O)cc(Cl)c2)c2c(N)c(C(N)=O)sc2n1 [Example 190] | 0.1 to 10 | 0.1 to 10 | 
13 | C[C@@H](CO)Nc1nc(-c2ccc(Cl)c(Cl)c2)c2c(N)c(C(N)=O)sc2n1 [Example 200] | 0.1 to 10 | 10 to 20 | 
14 | C[C@H](CO)Nc1nc(-c2ccc(Cl)c(Cl)c2)c2c(N)c(C(N)=O)sc2n1 [Example 201] | 0.1 to 10 | 10 to 20 | 
15 | CC(C)(CO)Nc1nc(-c2ccc(Cl)c(Cl)c2)c2c(N)c(C(N)=O)sc2n1 [Example 203] | 0.1 to 10 | 10 to 20 | 
16 | C[C@H](CO)Oc1nc(-c2ccc(Cl)c(Cl)c2)c2c(N)c(C(N)=O)sc2n1 [Example 212] | 0.1 to 10 | 10 to 20 | 
17 | NC(=O)c1sc2nc(NC3CC3)nc(-c3cccc(O)c3F)c2c1N [Example 232] | 0.1 to 10 | 0.1 to 10 | 
18 | COc1cc(-c2nc(NC3CC3)nc3sc(C(N)=O)c(N)c23)ccc1C(F)(F)F [Example 233] |  | 10 to 20 | 0.1 to 10
19 | NC(=O)c1sc2nc(NC3CC3)nc(-c3ccc(C(F)(F)F)cc3)c2c1N [Example 235] |  | 20 to 30 | 0.1 to 10
20 | NC(=O)c1sc2nc(NC3CC3)nc(-c3ccnc(Cl)c3)c2c1N [Example 236] |  | 30 to 60 | 0.1 to 10
21 | NC(=O)c1sc2nc(NC3CC3)nc(-c3ccnc(O)c3)c2c1N [Example 237] |  | > 60 | 10 to 20
22 | CC(C)c1nc(-c2ccc(Cl)c(Cl)c2)c2c(N)c(C(N)=O)sc2n1 [Example 238] | 10 to 20 |  | 0.1 to 10

Row | Compound | IC50 (pMEK1/2 in A375 cells) [µM] | IC50 (A375 cells) [µM] | IC50 (V600E mutant B-RAF) [µM]
23 | NC(=O)c1sc2nc(NC3CC3)nc(-c3cccc([N+](=O)[O-])c3)c2c1N [Example 244] |  | 30 to 60 | 0.1 to 10
24 | NC(=O)c1sc2nc(NC3CC3)nc(-c3cccc(NC(=O)C(F)(F)F)c3)c2c1N [Example 246] |  | > 60 | 10 to 20
25 | NC(=O)c1sc2nc(NC3CC3)nc(-c3cccc(NC(=O)Nc4ccccc4)c3)c2c1N [Example 248] | 10 to 20 | 10 to 20 | 
26 | NC(=O)c1sc2nc(NC3CC3)nc(-c3cccc(NC(=O)Nc4ccc(C(F)(F)F)cc4)c3)c2c1N [Example 250] | 0.1 to 10 | 0.1 to 10 | 
27 | Cc1ccc(NC(=O)Nc2cccc(-c3nc(NC4CC4)nc4sc(C(N)=O)c(N)c34)c2)cc1 [Example 251] | 0.1 to 10 | 0.1 to 10 | 
28 | NC(=O)Cc1nc(-c2ccc(Cl)c(Cl)c2)c2c(N)c(C(N)=O)sc2n1 [Example 254] |  | > 60 | 0.1 to 10
29 | NC(=O)c1sc2nc(CC(=O)O)nc(-c3ccc(Cl)c(Cl)c3)c2c1N [Example 255] |  | > 60 | 0.1 to 10
30 | CC(C)(CO)Nc1nc(-c2cccc(NC(=O)Nc3ccc(C(F)(F)F)cc3)c2)c2c(N)c(C(N)=O)sc2n1 [Example 257] | 0.1 to 10 | 0.1 to 10 | 
31 | NC(=O)c1sc2ncnc(-c3cccc(NC(=O)Nc4ccc(C(F)(F)F)cc4)c3)c2c1N [Example 262] | 0.1 to 10 | 0.1 to 10 | 
32 | NC(=O)c1sc2ncnc(-c3cc4c(c(OCc5ccccc5)c3)CCO4)c2c1N [Example 266] |  | 10 to 20 | > 60
33 | NC(=O)c1sc2ncnc(-c3cc(O)c4c(c3)OCC4)c2c1N [Example 267] |  | 10 to 20 | 0.1 to 10
34 | NC(=O)c1nc(-c2ccc(Cl)c(Cl)c2)c2c(N)c(C(N)=O)sc2n1 [Example 268] |  | 30 to 60 | 0.1 to 10
35 | NC(=O)c1sc2ncnc(-c3ccc(Cl)c(Cl)c3)c2c1N [Example 269] | > 60 | > 60 | 
36 | CC(C)[C@@H](CO)Nc1nc(-c2ccc(Cl)c(Cl)c2)c2c(N)c(C(N)=O)sc2n1 [Example 272] |  | 10 to 20 | 0.1 to 10
37 | NC(=O)c1sc2nc(NC3CC3)nc(Nc3ccccc3)c2c1N [Example 278] |  | 30 to 60 | 10 to 20
38 | NC(=O)c1sc2nc(NC3CC3)nc(Nc3ccc(Cl)c(Cl)c3)c2c1N [Example 279] |  | 0.1 to 10 | 30 to 60
39 | NC(=O)c1sc2nc(NC3(CO)CCC3)nc(-c3ccc(Cl)c(Cl)c3)c2c1N [Example 281] |  | 10 to 20 | 0.1 to 10
40 | COc1ccnc(-c2nc(NC(C)(C)CO)nc3sc(C(N)=O)c(N)c23)c1 [Example 284] |  | 10 to 20 | 30 to 60
41 | CCOc1nc(-c2cccc(C(F)F)c2)c2c(N)c(C(N)=O)sc2n1 [Example 285] |  | 10 to 20 | 0.1 to 10
42 | CC(C)(CO)Nc1nc(-c2cccc(C(F)F)c2)c2c(N)c(C(N)=O)sc2n1 [Example 286] |  | 10 to 20 | 0.1 to 10
43 | NC(=O)c1sc2ncnc(-c3cccc(Nc4nc5cc(C(F)(F)F)ccc5o4)c3)c2c1N [Example 288] |  | 10 to 20 | 0.1 to 10
44 | NC(=O)c1sc2ncnc(-c3cccc(NC(=O)Nc4cccnc4)c3)c2c1N [Example 293] |  | 10 to 20 | 0.1 to 10
